Test results as given in patent US7098219B2, “Inhibitors of cellular efflux pumps of microbes” (Wockhart Limited, priority 2000, dated 2006).

system: Mef Efflux Pump of Streptococcus pneumoniae 3514 and Streptococcus pyogenes 26-00; assay: Two plate diffusion assay for macrolide (Mef) efflux pump inhibitors, azithromycin plate versus control plate; format: cell-based; settings: zone of inhibition in antibiotic plate (method: azithromycin 0.5 mcg/ml; footnote: levofloxacin) minus water control plate; strain not given

Compound | Difference in Zone diameter Z1 (mm)
CCOC(=O)COC(=O)c1cn(C2CC2)c2c(OC)c(N3CCC(N)C(C)(C)C3)c(F)cc2c1=O (centres unmarked) [Example 5 (Mef), Ethoxycarbony methyl 1-Cyclopropyl-6-fluoro-8-methoxy-1,4-dihydro-7-(4′-amino-3′,3′-dimethylpiperidin-1-yl)-4-oxo-quinoline-3-carboxylate] | 13
O=C(O)c1cn(C2CC2)c2nc(N3CC4C(C3)C4NCc3ccccc3)c(F)cc2c1=O (centres unmarked) [Example 21 (Mef), 1-Cyclopropyl-6-fluoro-1,4-dihydro-7-{(1∝,5∝,6∝)-6-amino-N-benzyl-3-azabicyclo[3.1.0]hex-6-yl}-4-oxo-1,8-naphthyridine-3-carboxylic acid] | 17
COc1c(N2CCC(NC3CC3)CC2)c(F)c(N)c2c(=O)c(C(=O)O)cn(C3CC3)c12 [Example 33 (Mef), 5-Amino-1-cyclopropyl-6-fluoro-8-methoxy-1,4-dihydro-7-(4′-cyclopropylaminopiperidin-1-yl)-4-oxo-quinoline-3-carboxylic acid] | 10
Nc1c(F)c(C2(N)C3CN(Cc4ccccc4)CC32)c(F)c2c1c(=O)c(C(=O)O)cn2C1CC1 (centres unmarked) [Example 15 (Mef), 5-Amino-1-cyclopropyl-6,8-difluoro-1,4-dihydro-7-{(1∝,5∝,6∝)-6-amino-N-benzyl-3-azabicyclo[3.1.0]hex-6-yl}-4-oxo-quinoline-3-carboxylic acid] | 14
O=C(O)c1cn(-c2ccc(F)cc2F)c2nc(N3C[C@@H]4[C@H](C3)[C@H]4NCc3ccccc3)c(F)cc2c1=O [Example 23 (Mef), 1-(2,4-Difluorophenl)-6-fluoro-1,4-dihydro-7-{(1∝,5∝,6∝)-6-amino-N-benzyl-3-azabicyclo[3.1.0]hex-6-yl}-4-oxo-1,8-naphthyridine-3-carboxylic acid] | 15
(RS)-(±)-6,7-dihydro-8-(cis-4′-hydroxy-3′-methylpiperidin-1-yl)-5-methyl-1-oxo-1H,5H-benzo[i,j]quinolizine-2-carboxylic acid [Example 42 (Mef)] | 8
COc1c(N2CCC(NC(=O)[C@H](C)N)C(C)(C)C2)c(F)cc2c(=O)c(C(=O)O)cn(C3CC3)c12.Cl (some centres unmarked) [Example 8 (Mef), 1-Cyclopropyl-6-fluoro-8-methoxy-1,4-dihydro-7-(4′-(L)-alaninylamino-3′,3′-dimethylpiperidin-1-yl)-4-oxo-quinoline-3-carboxylic acid hydrochloride] | 10
COc1c(N2CCC(NC(=O)[C@H](C)NC(=O)OC(C)(C)C)C(C)(C)C2)c(F)cc2c(=O)c(C(=O)O)cn(C3CC3)c12.Cl (stereo partly drawn) [Example 7 (Mef), 1-Cyclopropyl-6-fluoro-8-methoxy-1,4-dihydro-7-{4′-N-(t-butoxycarbonyl-L-alanyl)-amino-3′,3′-dimethylpiperidin-1-yl}-4-oxo-quinoline-3-carboxylic acid hydrochloride] | 7
COc1c(N2CCC(NC(=O)OC(C)(C)C)C(C)(C)C2)c(F)cc2c(=O)c(C(=O)OCc3ccccc3)cn(C3CC3)c12 (centres unmarked) [Example 6 (Mef)] | 13
C[C@H]1CCOc2c(N3CCC(N)CC3)c(F)cc3c(=O)c(C(=O)O)cn1c23.Cl [Example 40 (Mef), 10-Fluoro-11-(4-aminopiperidin-1-yl)-3,4-dihydro-4(S)-methyl-8-oxo-2H,8H-pyrido[1,2,3-ef]-1,5-benzoxazepin-7-carboxylic acid, hydrochloride] | 13
CC1CCc2c(N3CC[C@@H](O)[C@H](C)C3)ccc3c(=O)c(C(=O)O)cn1c23 (mixture of isomers) [Example 41 (Mef), (RS)-(±)-6,7-dihydro-8-(trans-4′-hydroxy-3′-methylpiperidin-1-yl)-5-methyl-1-oxo-1H,5H-benzo[i,j]quinolizine-2-carboxylic acid] | 10
